Experiments:
[1] = Influence factor test (stability under heat, light, high humidity; HPLC purity); assay type: physicochemical
Protocol: Experimental method: refer to Pharmacopoeia of the People's Republic of China. 2005 ed. Part 2. Appendix XIX C
HPLC conditions: instrument: Agilent 1100
Chromatographic column: Phenomenex Hyperclone 5μ BDS C18
Mobile phase: acetonitrile: KH2PO4 (10 mM)=70:30
Column temperature: 40° C.

[2] = Solubility of acetic acid solvate (0.1N hydrogen chloride aqueous solution); assay type: physicochemical; conditions: for Solubility (0.1N hydrogen chloride aqueous solution), descriptive term: Chinese Pharmacopoeia 2005 General Notices
Description: Sample Sources: the Same as Example 10
Experimental method: refer to Pharmacopoeia of the People's Republic of China. 2005 ed. Part 2. General Notices.

[3] = cited from earlier work
platelet aggregation = conditions: cited from earlier work

Br.CC(=O)Oc1cc2c(s1)CCN(C(C(=O)C1CC1)c1ccccc1F)C2 (stereo not drawn) [Example X2]
Purity (HPLC area normalization) tR 6.2 ([1]; 0 day): 99.83
Purity (HPLC area normalization) tR 6.2 ([1]; 60° C. for 5 days): 99.39
Purity (HPLC area normalization) tR 6.2 ([1]; 60° C. for 10 days): 99.01
Purity (HPLC area normalization) tR 6.2 ([1]; RH 92.5% 5 days): 96.62
Purity (HPLC area normalization) tR 6.2 ([1]; RH 92.5% 10 days): 96.12
Purity (HPLC area normalization) tR 6.2 ([1]; light for 5 days): 99.40
Purity (HPLC area normalization) tR 6.2 ([1]; light for 10 days): 98.83
Solubility (0.1N hydrogen chloride aqueous solution), descriptive term [2]: degraded
Water solubility compared to hydrochloride [3]: improved

CC(=O)Oc1cc2c(s1)CCN(C(C(=O)C1CC1)c1ccccc1F)C2 (stereo not drawn) [Example X1]
Purity (HPLC area normalization) tR 6.2 ([1]; 0 day): 99.08
Purity (HPLC area normalization) tR 6.2 ([1]; 60° C. for 5 days): 98.89
Purity (HPLC area normalization) tR 6.2 ([1]; 60° C. for 10 days): 98.29
Purity (HPLC area normalization) tR 6.2 ([1]; RH 92.5% 5 days): 98.39
Purity (HPLC area normalization) tR 6.2 ([1]; RH 92.5% 10 days): 98.20
Purity (HPLC area normalization) tR 6.2 ([1]; light for 5 days): 98.49
Purity (HPLC area normalization) tR 6.2 ([1]; light for 10 days): 98.20
Solubility (0.1N hydrogen chloride aqueous solution), descriptive term [2]: slightly soluble
Inhibition of platelet aggregation (platelet aggregation): good activity

CC(=O)Oc1cc2c(s1)CCN(C(C(=O)C1CC1)c1ccccc1F)C2 (stereo not drawn) [Example X3, 2-acetoxy-5-(α-cyclopropylcarbonyl-2fluorobenzyl)-4,5,6,7-tetrahydrothieno[3,2-c]pyridine hydrobromate]
Purity (HPLC area normalization) tR 6.2 ([1]; 0 day): 99.84
Purity (HPLC area normalization) tR 6.2 ([1]; 60° C. for 5 days): 99.72
Purity (HPLC area normalization) tR 6.2 ([1]; 60° C. for 10 days): 99.46
Purity (HPLC area normalization) tR 6.2 ([1]; RH 92.5% 5 days): 99.65
Purity (HPLC area normalization) tR 6.2 ([1]; RH 92.5% 10 days): 99.50
Purity (HPLC area normalization) tR 6.2 ([1]; light for 5 days): 99.56
Purity (HPLC area normalization) tR 6.2 ([1]; light for 10 days): 99.57
Stability of crystal A compared with crystal B ([1]; stability test): better than crystal B
Stability compared with X1 and X2 ([1]; under all the conditions of light, 60° C., and RH 92.5%): more stable
Solubility compared with prasugrel hydrobromate and hydrochlorate [2]: better solubility
Solubility (0.1N hydrogen chloride aqueous solution), descriptive term [2]: easily soluble

maleate
Inhibition of platelet aggregation (platelet aggregation): good activity
